Data from patent US8669264B2, “Rutaecarpine derivatives for activating CYP1A2 in a subject” (Linnet Biopharmaceuticals, Inc., priority 2011, dated 2014).

Tested on: CYP1A2
Assay: MEROD assay in live Hepa1c1c7 cells (CYP1A2 induction)
Type: cell-based, mouse
Conditions: Hepa1c1c7 cells incubated with 10 μM compound
Excerpt: FIG. 1 illustrates how caffeine is primarily metabolized to paraxanthine via CYP1A2 enzyme in a human, according to some embodiments. The MEROD (methoxyresorufin-O-demethylase) assay measures the activity of the enzyme (CYP1A2) that converts methoxyresorufin (probe substrate) to resorufin (demethylation) in the presence of NADPH. The resulting resorufin concentration can be measured using a fluorescence reader by setting the excitation and emission wavelengths at 544 and 590 nm, respectively.
For MEROD assay in live cells, Hepa1c1c7 cells were cultured in either 6-well or 24-well-plates. For the 24-well plate experiment, after confluent cells were incubated for approximately 20 hours with either resorufin, nitro-resorufin, chloro-resorufin, 3-MC or DMSO (in triplicates), culture media was removed and 180 μL fresh culture media containing […] methoxyresorufin was added per well. After 1 hour incubation at 37° C., 100 μL aliquot was taken from each well and the formation of resorufin was measured by fluorescence. […] After 5 hours incubation at 37° C., 100 μL aliquot was taken from each well, centrifuged at 12,000 g at RT for ˜5 min and the supernatants were placed into wells of a 96-well fluorescence plate and the formation of resorufin was measured by fluorescence.

SMILES: O=c1c2ccc(Cl)cc2nc2n1CCc1c-2[nH]c2ccccc12 [chloro-rutaecarpine]
- formation of resorufin from live cells (MEROD): no marked difference
